Columns and labels:
HT-29 [1] = assay: Antiproliferative activity against human HT-29 cells at 10 uM after 72 hrs by MTS assay; format: functional; conditions: HT-29, 72 h
Tubulin = Tubulin (Bos taurus, UniProt Q6B856+Q862L2+Q862F3); assay: Inhibition of bovine tubulin polymerization after 1 hr by fluorescence spectrometry; format: protein assay
HUVEC = assay: Inhibition of cell invasion of HUVEC at 1 uM after 24 hrs by crystal violet staining based Boyden chamber assay; format: functional; conditions: Homo sapiens
SR [2] = assay: Growth inhibition of human SR cells at 10 uM after 48 hrs by sulforhodamine B assay; format: functional; conditions: read-out: GI
SR [3] = assay: Growth inhibition of human SR cells after 48 hrs by sulforhodamine B assay; format: functional
[4] = Growth inhibition of human PC3 cells at 10 uM after 48 hrs by sulforhodamine B assay; format: functional; conditions: PC-3, 48 h, read-out: GI
SK-MEL-5 [5] = assay: Growth inhibition of human SK-MEL-5 cells at 10 uM after 48 hrs by sulforhodamine B assay; format: functional; conditions: SK-MEL-5, 48 h, read-out: GI
[6] = Growth inhibition of human HOP62 cells at 10 uM after 48 hrs by sulforhodamine B assay; format: functional; conditions: HOP-62, 48 h, read-out: GI
[7] = Growth inhibition of human Caki1 cells at 10 uM after 48 hrs by sulforhodamine B assay; format: functional; conditions: CAKI-1, 48 h, read-out: GI
K562 [8] = assay: Growth inhibition of human K562 cells after 48 hrs by sulforhodamine B assay; format: functional; conditions: K562, 48 h
A498 [9] = assay: Growth inhibition of human A498 cells after 48 hrs by sulforhodamine B assay; format: functional; conditions: A498, 48 h
[10] = Growth inhibition of human OVCAR3 cells after 48 hrs by sulforhodamine B assay; format: functional; conditions: OVCAR-3, 48 h
MCF7 [11] = assay: Growth inhibition of human MCF7 cells after 48 hrs by sulforhodamine B assay; format: functional; conditions: MCF7, 48 h
HT-29 [12] = assay: Growth inhibition of human HT-29 cells after 48 hrs by sulforhodamine B assay; format: functional; conditions: HT-29, 48 h
[13] = Growth inhibition of human SNB75 cells at 10 uM after 48 hrs by sulforhodamine B assay; format: functional; conditions: SNB-75, 48 h, read-out: GI
MCF7 [14] = assay: Growth inhibition of human MCF7 cells at 10 uM after 48 hrs by sulforhodamine B assay; format: functional; conditions: MCF7, 48 h, read-out: GI
[15] = Growth inhibition of human DU145 cells at 10 uM after 48 hrs by sulforhodamine B assay; format: functional; conditions: DU-145, 48 h, read-out: GI
[16] = Growth inhibition of human DU145 cells after 48 hrs by sulforhodamine B assay; format: functional; conditions: DU-145, 48 h
U-251 [17] = assay: Growth inhibition of human U251 cells at 10 uM after 48 hrs by sulforhodamine B assay; format: functional; conditions: U-251, 48 h, read-out: GI
[18] = Growth inhibition of human NCI-ADR-RES cells after 48 hrs by sulforhodamine B assay; format: functional
A549 [19] = assay: Growth inhibition of human A549/ATCC cells after 48 hrs by sulforhodamine B assay; format: functional; conditions: A549, 48 h
[20] = Growth inhibition of human PC3 cells after 48 hrs by sulforhodamine B assay; format: functional; conditions: PC-3, 48 h
SK-MEL-5 [21] = assay: Growth inhibition of human SK-MEL-5 cells after 48 hrs by sulforhodamine B assay; format: functional; conditions: SK-MEL-5, 48 h
[22] = Growth inhibition of human COLO205 cells at 10 uM after 48 hrs by sulforhodamine B assay; format: functional; conditions: COLO 205, 48 h, read-out: GI
[23] = Growth inhibition of human HCT15 cells after 48 hrs by sulforhodamine B assay; format: functional; conditions: HCT-15, 48 h
MDA-MB-468 [24] = assay: Growth inhibition of human MDA-MB-468 cells after 48 hrs by sulforhodamine B assay; format: functional; conditions: MDA-MB-468, 48 h
[25] = Growth inhibition of human HL-60(TB) cells at 10 uM after 48 hrs by sulforhodamine B assay; format: functional; conditions: HL-60, 48 h, read-out: GI
NCI-H522 [26] = assay: Growth inhibition of human NCI-H522 cells at 10 uM after 48 hrs by sulforhodamine B assay; format: functional; conditions: NCI-H522, 48 h, read-out: GI
[27] = Growth inhibition of human OVCAR3 cells at 10 uM after 48 hrs by sulforhodamine B assay; format: functional; conditions: OVCAR-3, 48 h, read-out: GI
[28] = Cytotoxicity against human HL-60(TB) cells assessed as cell growth at 10 uM after 48 hrs by sulforhodamine B assay; format: functional; conditions: HL-60, 48 h, read-out: Activity
MDA-MB-435 [29] = assay: Growth inhibition of human MDA-MB-435 cells at 10 uM after 48 hrs by sulforhodamine B assay; format: functional; conditions: MDA-MB-435, 48 h, read-out: GI
A549 [30] = assay: Growth inhibition of human A549/ATCC cells at 10 uM after 48 hrs by sulforhodamine B assay; format: functional; conditions: A549, 48 h, read-out: GI
NCI-H522 [31] = assay: Growth inhibition of human NCI-H522 cells after 48 hrs by sulforhodamine B assay; format: functional; conditions: NCI-H522, 48 h
[32] = Growth inhibition of human HCT15 cells at 10 uM after 48 hrs by sulforhodamine B assay; format: functional; conditions: HCT-15, 48 h, read-out: GI
MDA-MB-435 [33] = assay: Growth inhibition of human MDA-MB-435 cells after 48 hrs by sulforhodamine B assay; format: functional; conditions: MDA-MB-435, 48 h
[34] = Growth inhibition of human HCT116 cells at 10 uM after 48 hrs by sulforhodamine B assay; format: functional; conditions: HCT-116, 48 h, read-out: GI
[35] = Cytotoxicity against human COLO205 cells assessed as cell growth at 10 uM after 48 hrs by sulforhodamine B assay; format: functional; conditions: COLO 205, 48 h, read-out: Activity
[36] = Growth inhibition of human HCT116 cells after 48 hrs by sulforhodamine B assay; format: functional; conditions: HCT-116, 48 h
U-251 [37] = assay: Growth inhibition of human U251 cells after 48 hrs by sulforhodamine B assay; format: functional; conditions: U-251, 48 h
[38] = Growth inhibition of human NCI-ADR-RES cells at 10 uM after 48 hrs by sulforhodamine B assay; format: functional; conditions: read-out: GI
[39] = Growth inhibition of human Caki1 cells after 48 hrs by sulforhodamine B assay; format: functional; conditions: CAKI-1, 48 h
HT-29 [40] = assay: Growth inhibition of human HT-29 cells at 10 uM after 48 hrs by sulforhodamine B assay; format: functional; conditions: HT-29, 48 h, read-out: GI
A498 [41] = assay: Growth inhibition of human A498 cells at 10 uM after 48 hrs by sulforhodamine B assay; format: functional; conditions: A498, 48 h, read-out: GI
K562 [42] = assay: Growth inhibition of human K562 cells at 10 uM after 48 hrs by sulforhodamine B assay; format: functional; conditions: K562, 48 h, read-out: GI
[43] = Growth inhibition of human SF295 cells at 10 uM after 48 hrs by sulforhodamine B assay; format: functional; conditions: SF-295, 48 h, read-out: GI
MDA-MB-468 [44] = assay: Growth inhibition of human MDA-MB-468 cells at 10 uM after 48 hrs by sulforhodamine B assay; format: functional; conditions: MDA-MB-468, 48 h, read-out: GI
[45] = Growth inhibition of human COLO205 cells after 48 hrs by sulforhodamine B assay; format: functional; conditions: COLO 205, 48 h
MDA-MB-435 [46] = assay: Cytotoxicity against human MDA-MB-435 cells assessed as cell growth at 10 uM after 48 hrs by sulforhodamine B assay; format: functional; conditions: MDA-MB-435, 48 h, read-out: Activity
[47] = Growth inhibition of human SF295 cells after 48 hrs by sulforhodamine B assay; format: functional; conditions: SF-295, 48 h
[48] = Growth inhibition of human HOP62 cells after 48 hrs by sulforhodamine B assay; format: functional; conditions: HOP-62, 48 h
MDA-MB-435 [49] = assay: Growth inhibition of human MDA-MB-435 cells after 72 hrs by MTT assay; format: functional; conditions: MDA-MB-435, 72 h
[50] = Growth inhibition of human HL-60(TB) cells after 48 hrs by sulforhodamine B assay; format: functional; conditions: HL-60, 48 h
[51] = Growth inhibition of human SNB75 cells after 48 hrs by sulforhodamine B assay; format: functional; conditions: SNB-75, 48 h
MCF7 [52] = assay: Growth inhibition of human MCF7 cells after 3 days by MTT assay; format: functional; conditions: MCF7, 72 h

## COc1cc(-c2nnc3[nH]c(=O)c4ccccc4n23)ccc1O
HT-29 [1]
  inhibition at 10 µM: 0%
Tubulin
  IC50: > 10 µM

## COc1cc(-c2nnc3[nH]c(=O)c4ccccc4n23)cc(OC)c1OC
HT-29 [1]
  inhibition at 10 µM: 2%
Tubulin
  IC50: > 10 µM

## COc1cc(-c2nnc3n(C)c(=O)c4ccccc4n23)ccc1O
HT-29 [1]
  inhibition at 10 µM: 0%
Tubulin
  IC50: > 10 µM

## COc1ccc(-c2nnc3n(C)c(=O)c4ccccc4n23)cc1
HT-29 [1]
  inhibition at 10 µM: 2%
Tubulin
  IC50: > 10 µM

## COc1cc2c(Oc3ccc4[nH]c(C)cc4c3F)ncnc2cc1OCCCN1CCCC1 [CEDIRANIB]
HUVEC
  inhibition at 1 µM: 74%

## COc1ccc(-c2nnc3[nH]c(=O)c4ccccc4n23)cc1
HT-29 [1]
  inhibition at 10 µM: 0%
Tubulin
  IC50: > 10 µM

## Cn1c(=O)c2ccccc2n2c(-c3ccc(O)c(O)c3)nnc12
HT-29 [1]
  inhibition at 10 µM: 0%
Tubulin
  IC50: > 10 µM

## COc1ccc(-c2nnc3[nH]c(=O)c4ccccc4n23)cc1OC
HT-29 [1]
  inhibition at 10 µM: 0%
Tubulin
  IC50: > 10 µM

## COc1ccc(-c2nnc3n(C)c(=O)c4ccccc4n23)cc1N
SR [2]
  inhibition of growth at 10 µM: 89%
SR [3]
  GI50: 34 nM
[4]
  inhibition of growth at 10 µM: 67%
SK-MEL-5 [5]
  inhibition of growth at 10 µM: 86%
[6]
  inhibition of growth at 10 µM: 83%
[7]
  inhibition of growth at 10 µM: 65%
K562 [8]
  GI50: 39 nM
A498 [9]
  GI50: 2840 nM
[10]
  GI50: 47 nM
MCF7 [11]
  GI50: 43 nM
HT-29 [12]
  GI50: 43 nM
[13]
  inhibition of growth at 10 µM: 81%
MCF7 [14]
  inhibition of growth at 10 µM: 85%
[15]
  inhibition of growth at 10 µM: 79%
[16]
  GI50: 3.09 µM
U-251 [17]
  inhibition of growth at 10 µM: 81%
[18]
  GI50: 65 nM
A549 [19]
  GI50: 1470 nM
[20]
  GI50: 2650 nM
SK-MEL-5 [21]
  GI50: 60 nM
[22]
  inhibition of growth at 10 µM: 100%
[23]
  GI50: 50 nM
MDA-MB-468 [24]
  GI50: 2330 nM
[25]
  inhibition of growth at 10 µM: 100%
NCI-H522 [26]
  inhibition of growth at 10 µM: 91%
[27]
  inhibition of growth at 10 µM: 92%
[28]
  growth at 10 µM: 11%
MDA-MB-435 [29]
  inhibition of growth at 10 µM: 100%
A549 [30]
  inhibition of growth at 10 µM: 72%
NCI-H522 [31]
  GI50: 31 nM
[32]
  inhibition of growth at 10 µM: 78%
MDA-MB-435 [33]
  GI50: 23 nM
[34]
  inhibition of growth at 10 µM: 76%
[35]
  growth at 10 µM: 18%
[36]
  GI50: 57 nM
U-251 [37]
  GI50: 1630 nM
[38]
  inhibition of growth at 10 µM: 83%
[39]
  GI50: 1950 nM
HT-29 [40]
  inhibition of growth at 10 µM: 95%
A498 [41]
  inhibition of growth at 10 µM: 80%
HT-29 [1]
  inhibition at 10 µM: 95%
K562 [42]
  inhibition of growth at 10 µM: 92%
[43]
  inhibition of growth at 10 µM: 98%
MDA-MB-468 [44]
  inhibition of growth at 10 µM: 89%
Tubulin
  IC50: > 10 µM
[45]
  GI50: 47 nM
MDA-MB-435 [46]
  growth at 10 µM: 44%
[47]
  GI50: 50 nM
[48]
  GI50: 48 nM

## COc1cc(-c2nnc3n(C)c(=O)c4ccccc4n23)cc(OC)c1OC
HT-29 [1]
  inhibition at 10 µM: 0%
Tubulin
  IC50: > 10 µM

## COc1ccc(-c2nnc3n(C)c(=O)c4ccccc4n23)cc1OC
HT-29 [1]
  inhibition at 10 µM: 1%
Tubulin
  IC50: > 10 µM

## COc1ccc(/C=C\c2cc(OC)c(OC)c(OC)c2)cc1O [COMBRETASTATIN A4]
SR [3]
  GI50: 3 nM
MDA-MB-435 [49]
  GI50: 3 nM
K562 [8]
  GI50: 2 nM
A498 [9]
  GI50: 6 nM
[10]
  GI50: 2 nM
HT-29 [12]
  GI50: 118 nM
A549 [19]
  GI50: 16 nM
[20]
  GI50: 1 nM
SK-MEL-5 [21]
  GI50: 3 nM
[23]
  GI50: 4 nM
[50]
  GI50: 2 nM
NCI-H522 [31]
  GI50: 2 nM
[51]
  GI50: 8 nM
[36]
  GI50: 3 nM
U-251 [37]
  GI50: 4 nM
[39]
  GI50: 25 nM
[45]
  GI50: 221 nM
MCF7 [52]
  GI50: 18 nM
[47]
  GI50: 4 nM
[48]
  GI50: 2 nM

## COc1ccc(-c2nnc3[nH]c(=O)c4ccccc4n23)cc1O
HT-29 [1]
  inhibition at 10 µM: 10%
Tubulin
  IC50: 4.26 µM
